Measurements reported in patent EP0068563A2, “Heterocyclic acetic acid compounds and compositions for treating bone diseases” (THE PROCTER & GAMBLE COMPANY, priority 1981, dated 1983).

How the values were obtained:
Fetal rat bone = assay: PGE2 stimulated in vitro bone resorption in the fetal long bone system (45Ca release); format: cell-based; conditions: versus control cultures; for inhibition at 390 µM: concentration 0.39 mM; for inhibition at 1560 µM: concentration 1.56 mM
Method: Fetal rat bone was cultured in the medium described in this reference. Bone resorption was stimulated by addition of prostaglandin, PGE2, and measured by the release of previously incorporated ^45Ca into the medium and by changes in the total bone calcium content.
PGE2 Stimulated Bone Resorption in the Fetal Long Bone System

[1] = test system: Weanling male Sprague-Dawley derived rats; assay: in vivo periosteal and endosteal bone apposition rates and endosteal resorption rates (tetracycline/DCAF double label, tibial sections); set-up: EBAR (endosteal bone apposition rate) / ERR (endosteal resorption rate): unit not given here; conditions: for ERR (endosteal resorption rate) / EBAR (endosteal bone apposition rate) / P BAR (periosteal bone apposition rate): subcutaneous daily, 10 days, rat tibia; for ERR (endosteal resorption rate): control 3.6; for EBAR (endosteal bone apposition rate): control 4.0; for P BAR (periosteal bone apposition rate): control 14.7
From the text: The following test was used to establish in vivo periosteal and endosteal bone apposition rates and endosteal resorption rates. The test method is a modification of the method of Baylink, et al., J. Clin. Invest.
Weanling male Sprague-Dawley derived rats weighing 50-60 grams (Charles River Breeding Labs, Wilmington, Massachusetts) were allowed 2-3 days to adapt to the laboratory environment before receiving any treatment. Throughout the adaptation and experimental periods the animals were allowed free access to tap water and food (Purina Lab Rat Chow, Ralston Purina Company, St. Louis, Missouri).
On the first day of the experiment all animals were given a subcutaneous injection of tetracycline hydrochloride at a dose of 20 mg/kg to label the skeleton. Test compound and saline (control animals) treatments were also started on the first day of the experiment. They were given subcutaneously under skin flap where the rear legs join the body using alternating sides each day. Since these animals were rapidly growing, body weights were taken daily and dosage adjusted accordingly.
Seven days after the animals received tetracycline they were given a subcutaneous injection of (2,4 bis)N-N'-di (carboxymethyl)amino methylfluorescein (DCAF) at a dose of 20 mg/kg to provide a second skeletal label.
Ten days after treatments were initiated, the animals were sacrificed by carbon dioxide asphyxiation and their left and right tibias and femurs taken and placed in 70% ethanol until they were further processed.
The test comoounds were given as solutions preoared in distilled water, and the pH was adjusted to 7.4. Solution concentrations were adjusted so that constant volumes of 0.2 ml/100 grams of body weight could be maintained for all animals.
Dose volumes were […] of body weight.
DCAF, (2,4-bis)-N,N'di(carboxymethyl) amino methyl fluorescein, Nutritional Biochemicals Corporation, Cleveland, Ohio was given as a 1% solution in 2% sodium bicarbonate and 0.8% dextrose. This solution was filtered prior to administration to remove any undissolved particles. Dose volumes of the DCAF solution were 0.2 ml/100 grams of body weight.
The left tibiae were blocked stained with Villanueva's stain, embedded in methyl methacrylate and sectioned at 75-100 u. Cross sections were prepared from the shaft of the tibia where it is joined by the distal portion of the fibula.
These parameters were measured in tibial cross sections and in longitudinal sections through the proximal tibial epiphysis with a 5 mm micrometer which was superimposed optically over the section by placing it in the eyepiece of a microscope. Conversion of the values obtained to actual widths was established with a stage micrometer.
The width between fluorescent labels on the periosteal surface was established at 100x by making 4 measurements at 90. degree intervals around the circumference of the labeled area. Measurements were made from the middle of one label to the middle of' the next. A mean value was then established for each surface and multiplied times the conversion factor to obtain the actual distance in microns. Bone apposition rates were then calculated by dividing this value by the number of days over which the fluorescent labels were given (i.e. 7 days).
Endosteal bone apposition was established at 100x by making 4 measurements at equidistant points across the section from the bottom of the plate to the closest fluorescent label (the last label administered). A mean value was then established and multiplied times a conversion factor to obtain the actual distance in microns.
A mean value was then established and multiplied times a conversion factor to obtain the actual distance in microns. Bone resorption rates were calculated by dividing this value by number of days over which the experiment was conducted (i.e. 10 days).

SMILES: COc1ccc2[nH]c(C(=O)O)cc2c1 [5-Methoxyindole-2-Carboxylic Acid]
- inhibition at 390 µM (Fetal rat bone): 47.5%
- inhibition at 1560 µM (Fetal rat bone): 80.1%

SMILES: O=C(O)Cc1nc2ccccc2[nH]1 [BMZAA, benzimidazole-2-acetic acid]
- ERR (endosteal resorption rate) ([1]; dose 5 uM): 1.0
- EBAR (endosteal bone apposition rate) ([1]; dose 5 uM): 3.8
- P BAR (periosteal bone apposition rate) ([1]; dose 5 uM): 15.5
- ERR (endosteal resorption rate) ([1]; dose 16 uM): 1.5
- EBAR (endosteal bone apposition rate) ([1]; dose 16 uM): 3.4
- P BAR (periosteal bone apposition rate) ([1]; dose 16 uM): 18.1

SMILES: O=C(O)Cc1cc2ccccc2s1 [BTAA, benzothiophene-2-acetic acid]
- ERR (endosteal resorption rate) ([1]; dose 5 uM): 1.2
- EBAR (endosteal bone apposition rate) ([1]; dose 5 uM): 3.5
- P BAR (periosteal bone apposition rate) ([1]; dose 5 uM): 16.0
- ERR (endosteal resorption rate) ([1]; dose 16 uM): 0.9
- EBAR (endosteal bone apposition rate) ([1]; dose 16 uM): 3.9
- P BAR (periosteal bone apposition rate) ([1]; dose 16 uM): 18.1

SMILES: O=C(O)c1cc2ccccc2s1 [BTCA, benzothiophene-2-carboxylic acid]
- ERR (endosteal resorption rate) ([1]; dose 5 uM): 2.9
- EBAR (endosteal bone apposition rate) ([1]; dose 5 uM): 3.5
- P BAR (periosteal bone apposition rate) ([1]; dose 5 uM): 18.2
- ERR (endosteal resorption rate) ([1]; dose 16 uM): 3.3
- EBAR (endosteal bone apposition rate) ([1]; dose 16 uM): 3.4
- P BAR (periosteal bone apposition rate) ([1]; dose 16 uM): 16.2
- bone resorption (conclusion in words) ([1]; summary of the rat test table): does not significantly reduce bone resorption

SMILES: O=P(O)(O)C(Cl)(Cl)P(=O)(O)O [Cl2MDP, dichloro-methylene-diphosphonate]
- ERR (endosteal resorption rate) ([1]; dose 16 uM): 1.3
- EBAR (endosteal bone apposition rate) ([1]; dose 16 uM): 3.2
- P BAR (periosteal bone apposition rate) ([1]; dose 16 uM): 14.8
- ERR (endosteal resorption rate) ([1]; dose 80 uM): 0
- EBAR (endosteal bone apposition rate) ([1]; dose 80 uM): 3.1
- P BAR (periosteal bone apposition rate) ([1]; dose 80 uM): 14.8

SMILES: O=C(O)Cc1cccs1 [Thiophene-2-Acetic Acid]
- inhibition at 390 µM (Fetal rat bone): 47.8%
- inhibition at 1560 µM (Fetal rat bone): 107%

SMILES: O=C(O)c1cccs1 [Thiophene-2-Carboxylic Acid, reference compound]
- inhibition at 390 µM (Fetal rat bone): 43%
- inhibition at 1560 µM (Fetal rat bone): 47.8%
